Results: PMC10866072, “Design, synthesis, molecular modelling and biological evaluation of novel 6-amino-5-cyano-2-thiopyrimidine derivatives as potent anticancer agents against leukemia and apoptotic inducers” (Journal of Enzyme Inhibition and Medicinal Chemistry, 2024)

Columns and labels:
CCRF-CEM = assay type: cell-based; details: Homo sapiens, one dose 10^-5 M, 48 h
HL-60(TB) = assay type: cell-based; details: Homo sapiens, one dose 10^-5 M, 48 h
K-562 = assay type: cell-based; details: Homo sapiens, K562, one dose 10^-5 M, 48 h
MOLT-4 = assay type: cell-based; details: Homo sapiens, one dose 10^-5 M, 48 h, read-out: % growth
RPMI-8226 = assay type: cell-based; details: Homo sapiens, one dose 10^-5 M, 48 h
SR = assay type: cell-based; details: Homo sapiens, one dose 10^-5 M, 48 h
A549/ATCC = assay type: cell-based; details: Homo sapiens, one dose 10^-5 M, 48 h
EKVX = assay type: cell-based; details: Homo sapiens, one dose 10^-5 M, 48 h
HOP-62 = assay type: cell-based; details: Homo sapiens, one dose 10^-5 M, 48 h
HOP-92 = assay type: cell-based; details: Homo sapiens, one dose 10^-5 M, 48 h
NCI-H226 = assay type: cell-based; details: Homo sapiens, one dose 10^-5 M, 48 h
NCI-H23 = assay type: cell-based; details: Homo sapiens, one dose 10^-5 M, 48 h, read-out: % growth
NCI-H460 = assay type: cell-based; details: Homo sapiens, one dose 10^-5 M, 48 h, read-out: % growth
NCI-H522 = assay type: cell-based; details: Homo sapiens, one dose 10^-5 M, 48 h
COLO 205 = assay type: cell-based; details: Homo sapiens, one dose 10^-5 M, 48 h
HCC-2998 = assay type: cell-based; details: Homo sapiens, one dose 10^-5 M, 48 h
HCT-116 = assay type: cell-based; details: Homo sapiens, one dose 10^-5 M, 48 h, read-out: % growth
HCT-15 = assay type: cell-based; details: Homo sapiens, one dose 10^-5 M, 48 h, read-out: % growth
HT29 = assay type: cell-based; details: Homo sapiens, HT-29, one dose 10^-5 M, 48 h
KM12 = assay type: cell-based; details: Homo sapiens, one dose 10^-5 M, 48 h
SW-620 = assay type: cell-based; details: Homo sapiens, one dose 10^-5 M, 48 h
SF-268 = assay type: cell-based; details: Homo sapiens, one dose 10^-5 M, 48 h, read-out: % growth
SF-295 = assay type: cell-based; details: Homo sapiens, one dose 10^-5 M, 48 h
SF-539 = assay type: cell-based; details: Homo sapiens, one dose 10^-5 M, 48 h
SNB-19 = assay type: cell-based; details: Homo sapiens, one dose 10^-5 M, 48 h, read-out: % growth
U251 = assay type: cell-based; details: Homo sapiens, U-251, one dose 10^-5 M, 48 h
LOX IMVI = assay type: cell-based; details: Homo sapiens, one dose 10^-5 M, 48 h, read-out: % growth
MALME-3M = assay type: cell-based; details: Homo sapiens, one dose 10^-5 M, 48 h
M14 = assay type: cell-based; details: Homo sapiens, one dose 10^-5 M, 48 h
MDA-MB-435 = assay type: cell-based; details: Homo sapiens, one dose 10^-5 M, 48 h, read-out: % growth
SK-MEL-2 = assay type: cell-based; details: Homo sapiens, one dose 10^-5 M, 48 h
SK-MEL-28 = assay type: cell-based; details: Homo sapiens, one dose 10^-5 M, 48 h
SK-MEL-5 = assay type: cell-based; details: Homo sapiens, one dose 10^-5 M, 48 h, read-out: % growth
UACC-257 = assay type: cell-based; details: Homo sapiens, one dose 10^-5 M, 48 h
UACC-62 = assay type: cell-based; details: Homo sapiens, one dose 10^-5 M, 48 h
IGROV1 = assay type: cell-based; details: Homo sapiens, IGROV-1, one dose 10^-5 M, 48 h, read-out: % growth
OVCAR-3 = assay type: cell-based; details: Homo sapiens, one dose 10^-5 M, 48 h
OVCAR-4 = assay type: cell-based; details: Homo sapiens, one dose 10^-5 M, 48 h
OVCAR-5 = assay type: cell-based; details: Homo sapiens, one dose 10^-5 M, 48 h
OVCAR-8 = assay type: cell-based; details: Homo sapiens, one dose 10^-5 M, 48 h
NCI/ADR-RES = assay type: cell-based; details: Homo sapiens, one dose 10^-5 M, 48 h
SK-OV-3 = assay type: cell-based; details: Homo sapiens, one dose 10^-5 M, 48 h
786-0 = assay type: cell-based; details: Homo sapiens, one dose 10^-5 M, 48 h
A498 = assay type: cell-based; details: Homo sapiens, one dose 10^-5 M, 48 h
ACHN = assay type: cell-based; details: Homo sapiens, one dose 10^-5 M, 48 h
CAKI-1 = assay type: cell-based; details: Homo sapiens, CAKI-1, 48 h, one dose 10^-5 M, 48 h
RXF 393 = assay type: cell-based; details: Homo sapiens, RXF 393, 48 h, one dose 10^-5 M, 48 h, read-out: % growth
SN12C = assay type: cell-based, human; details: Homo sapiens, one dose 10^-5 M, 48 h
TK-10 = assay type: cell-based; details: Homo sapiens, one dose 10^-5 M, 48 h
UO-31 = assay type: cell-based; details: Homo sapiens, UO-31, 48 h, one dose 10^-5 M, 48 h
PC-3 = assay type: cell-based; details: Homo sapiens, one dose 10^-5 M, 48 h
DU-145 = assay type: cell-based; details: Homo sapiens, one dose 10^-5 M, 48 h
MCF7 = assay type: cell-based; details: Homo sapiens, one dose 10^-5 M, 48 h, read-out: % growth
MDA-MB-231/ATCC = assay type: cell-based; details: Homo sapiens, one dose 10^-5 M, 48 h
HS 578T = assay type: cell-based; details: Homo sapiens; one dose 10^-5 M, 48 h; HS 578T; read-out: % growth
BT-549 = assay type: cell-based; details: Homo sapiens, one dose 10^-5 M, 48 h
T-47D = assay type: cell-based; details: Homo sapiens, T47D, one dose 10^-5 M, 48 h, read-out: % growth
MDA-MB-468 = assay type: cell-based; details: Homo sapiens, one dose 10^-5 M, 48 h
[1] = system: full NCI 60 cell lines panel; details: for activity at 10 µM: Homo sapiens, 60 cell, 48 h, read-out: Mean % growth; for activity on all 60 cancer cell lines tested (in words): one dose

N=C(NN=Cc1ccccc1)c1c(N)nc(S)nc1-c1ccc(Cl)cc1Cl [Compound 4m, 4-Amino-6–(2,4-dichlorophenyl)-2-mercapto-N'-[phenylmethylene]pyrimidine-5-carboximidohydrazide]
% cell growth at 10 µM (CCRF-CEM): 105%
% growth at 10 µM (HL-60(TB)): 97.1%
% growth at 10 µM (K-562): 95.8%
activity at 10 µM (MOLT-4): 96.2%
% growth at 10 µM (RPMI-8226): 104%
percent cell growth at 10 µM (SR): 83.2%
% growth at 10 µM (A549/ATCC): 97.4%
% cell growth at 10 µM (EKVX): 103%
% growth at 10 µM (HOP-62): 96.6%
% growth at 10 µM (HOP-92): 69.2%
% growth at 10 µM (NCI-H226): 92%
activity at 10 µM (NCI-H23): 98.7%
activity at 10 µM (NCI-H460): 108%
% growth at 10 µM (NCI-H522): 109%
% growth at 10 µM (COLO 205): 115%
% growth at 10 µM (HCC-2998): 105%
activity at 10 µM (HCT-116): 103%
activity at 10 µM (HCT-15): 101%
% growth at 10 µM (HT29): 108%
% growth at 10 µM (KM12): 103%
% growth at 10 µM (SW-620): 109%
activity at 10 µM (SF-268): 105%
% cell growth at 10 µM (SF-295): 86.9%
% growth at 10 µM (SF-539): 100%
activity at 10 µM (SNB-19): 95.8%
% growth at 10 µM (U251): 97.3%
activity at 10 µM (LOX IMVI): 100%
% growth at 10 µM (MALME-3M): 85.7%
% growth at 10 µM (M14): 96.2%
activity at 10 µM (MDA-MB-435): 110%
% growth at 10 µM (SK-MEL-2): 120%
% cell growth at 10 µM (SK-MEL-28): 104%
activity at 10 µM (SK-MEL-5): 103%
percent cell growth at 10 µM (UACC-257): 106%
% growth at 10 µM (UACC-62): 94.3%
activity at 10 µM (IGROV1): 101%
% growth at 10 µM (OVCAR-3): 109%
% growth at 10 µM (OVCAR-4): 115%
percent cell growth at 10 µM (OVCAR-5): 108%
% growth of cells at 10 µM (OVCAR-8): 109%
cell growth percent at 10 µM (NCI/ADR-RES): 105%
% growth at 10 µM (SK-OV-3): 95.6%
% growth at 10 µM (786-0): 92.5%
% growth at 10 µM (A498): 125%
% growth at 10 µM (ACHN): 108%
% growth at 10 µM (CAKI-1): 96%
activity at 10 µM (RXF 393): 89.5%
% growth at 10 µM (SN12C): 95.9%
% cell growth at 10 µM (TK-10): 140%
% cell growth at 10 µM (UO-31): 90.1%
percent cell growth at 10 µM (PC-3): 103%
% growth at 10 µM (DU-145): 111%
activity at 10 µM (MCF7): 89.1%
% growth at 10 µM (MDA-MB-231/ATCC): 94.4%
activity at 10 µM (HS 578T): 102%
% cell growth at 10 µM (BT-549): 88.5%
activity at 10 µM (T-47D): 103%
percent cell growth at 10 µM (MDA-MB-468): 91.1%
activity at 10 µM [1]: 101%
activity on all 60 cancer cell lines tested (in words) [1]: weak activity

N=C(NN=Cc1ccc(Cl)cc1)c1c(N)nc(S)nc1-c1ccc(Cl)cc1Cl [Compound 4n, 4-Amino-N'-[(4-chlorophenyl)methylene]-6–(2,4-dichlorophenyl)-2-mercapto pyrimidine-5-carboximidohydrazide]
% cell growth at 10 µM (CCRF-CEM): 106%
% growth at 10 µM (HL-60(TB)): 108%
% growth at 10 µM (K-562): 89.9%
activity at 10 µM (MOLT-4): 92.4%
% growth at 10 µM (RPMI-8226): 102%
percent cell growth at 10 µM (SR): 90.6%
% growth at 10 µM (A549/ATCC): 95.8%
% cell growth at 10 µM (EKVX): 108%
% growth at 10 µM (HOP-62): 83.1%
% growth at 10 µM (HOP-92): 64.2%
% growth at 10 µM (NCI-H226): 86.3%
activity at 10 µM (NCI-H23): 92.9%
activity at 10 µM (NCI-H460): 102%
% growth at 10 µM (NCI-H522): 90.6%
% growth at 10 µM (COLO 205): 114%
% growth at 10 µM (HCC-2998): 101%
activity at 10 µM (HCT-116): 94.6%
activity at 10 µM (HCT-15): 101%
% growth at 10 µM (HT29): 121%
% growth at 10 µM (KM12): 108%
% growth at 10 µM (SW-620): 106%
activity at 10 µM (SF-268): 100%
% cell growth at 10 µM (SF-295): 73.4%
% growth at 10 µM (SF-539): 87.3%
activity at 10 µM (SNB-19): 90.9%
% growth at 10 µM (U251): 70.5%
activity at 10 µM (LOX IMVI): 95.4%
% growth at 10 µM (MALME-3M): 81.6%
% growth at 10 µM (M14): 95.6%
activity at 10 µM (MDA-MB-435): 104%
% growth at 10 µM (SK-MEL-2): 108%
% cell growth at 10 µM (SK-MEL-28): 106%
activity at 10 µM (SK-MEL-5): 103%
percent cell growth at 10 µM (UACC-257): 108%
% growth at 10 µM (UACC-62): 90.9%
activity at 10 µM (IGROV1): 97%
% growth at 10 µM (OVCAR-3): 110%
% growth at 10 µM (OVCAR-4): 107%
percent cell growth at 10 µM (OVCAR-5): 105%
% growth of cells at 10 µM (OVCAR-8): 91.2%
cell growth percent at 10 µM (NCI/ADR-RES): 105%
% growth at 10 µM (SK-OV-3): 92.2%
% growth at 10 µM (786-0): 78%
% growth at 10 µM (A498): 122%
% growth at 10 µM (ACHN): 83.7%
% growth at 10 µM (CAKI-1): 98.6%
activity at 10 µM (RXF 393): 84.7%
% growth at 10 µM (SN12C): 90.1%
% cell growth at 10 µM (TK-10): 143%
% cell growth at 10 µM (UO-31): 93.2%
percent cell growth at 10 µM (PC-3): 102%
% growth at 10 µM (DU-145): 109%
activity at 10 µM (MCF7): 83.6%
% growth at 10 µM (MDA-MB-231/ATCC): 82.5%
activity at 10 µM (HS 578T): 102%
% cell growth at 10 µM (BT-549): 92.6%
activity at 10 µM (T-47D): 92.6%
percent cell growth at 10 µM (MDA-MB-468): 96.1%
activity at 10 µM [1]: 97.2%
activity on all 60 cancer cell lines tested (in words) [1]: weak activity
